Measurements published in patent US20240016924A1, “NEW ADJUVANT TO IMPROVE THE INNATE IMMUNITY” (INSTITUT NATIONAL DE LA SANTÉ ET DE LA RECHERCHE MÉDICALE, priority 2020, published 2024).

Test system: nasal RPMI cells
Test: Quantitative RT-PCR for short and long form TSLP, nasal RPMI cells
Type: cell-based, human
Experimental: The expression of short and long form TSLP was quantified as described (Bjerkan, Schreurs et al. 2015, Dong, Hu et al. 2016). Briefly, total RNA was extracted using Trizol. Five hundred nanograms of RNA were treated with ezDNase Enzyme (Thermo Fisher) to remove genomic DNA, and reverse transcribed into cDNA using the kit SuperScript IV VILO Master Mix according to manufacturer instructions (Thermo Fisher). Quantitative PCR was performed using reported primers (Dong, Hu et al. 2016) and the PowerUp SYBR Green Master Mix according to manufacturer instructions (Thermo Fisher). Reactions were performed in triplicates, with glyceraldehyde-3-phosphate dehydrogenase (GAPDH) as the internal control. Amplification, data acquisition, and analysis were carried out using the LightCycler 480 Software (Roche, Mannheim, Germany). The levels of TSLP mRNA were normalized to the levels of GAPDH using the ΔCt method (Schmittgen and Livak 2008) and were presented as 2-ΔCt values.

With “SQNQQEKNEQELLELDKWASLWNWFNITNWLWYIK [P1]” the “increase of lfTSLP transcription compared to unstimulated cells” value (p=0.02, n=5) was 1.9 fold and the “level of the sfTSLP transcript” value (upon P1 stimulation) was “remains unchanged”.
